Results published in ChEMBL document CHEMBL1141148, “Antidiabetic activity of passive nonsteroidal glucocorticoid receptor modulators” (J Med Chem, 2005).

Legend:
[1] = Half life period of the compound in human hepatocytes was determined; format: ADME, cell-based, Liver, Hepatocyte
Androgen receptor = molecular target: T1, Androgen receptor (Homo sapiens, UniProt P10275)
T1 sequence (P10275 whole entry): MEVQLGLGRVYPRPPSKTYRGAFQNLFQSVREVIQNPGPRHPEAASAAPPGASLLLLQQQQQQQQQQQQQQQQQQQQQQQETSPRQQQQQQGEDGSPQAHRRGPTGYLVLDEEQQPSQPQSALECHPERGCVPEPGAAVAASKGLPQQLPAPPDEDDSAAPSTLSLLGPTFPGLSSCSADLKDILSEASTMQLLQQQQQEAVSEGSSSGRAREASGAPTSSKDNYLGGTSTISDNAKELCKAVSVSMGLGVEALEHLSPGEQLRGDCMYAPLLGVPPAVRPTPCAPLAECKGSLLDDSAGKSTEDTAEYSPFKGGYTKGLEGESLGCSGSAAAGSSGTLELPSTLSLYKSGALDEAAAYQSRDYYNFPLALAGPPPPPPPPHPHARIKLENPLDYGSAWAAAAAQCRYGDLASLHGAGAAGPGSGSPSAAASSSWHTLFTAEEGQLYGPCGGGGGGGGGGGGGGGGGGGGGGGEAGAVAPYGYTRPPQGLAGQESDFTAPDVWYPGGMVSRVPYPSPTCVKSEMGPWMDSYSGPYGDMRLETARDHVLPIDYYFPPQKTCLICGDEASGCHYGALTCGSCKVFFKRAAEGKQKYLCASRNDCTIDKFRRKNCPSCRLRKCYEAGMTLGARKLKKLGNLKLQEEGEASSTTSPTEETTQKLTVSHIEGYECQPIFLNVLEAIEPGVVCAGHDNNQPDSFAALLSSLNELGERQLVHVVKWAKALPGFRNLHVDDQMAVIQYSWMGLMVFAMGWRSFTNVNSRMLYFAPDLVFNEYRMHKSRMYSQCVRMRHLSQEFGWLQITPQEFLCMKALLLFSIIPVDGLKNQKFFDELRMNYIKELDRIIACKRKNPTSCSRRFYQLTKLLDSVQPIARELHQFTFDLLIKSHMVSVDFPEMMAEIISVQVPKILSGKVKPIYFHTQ

Progesterone receptor = molecular target: T2, Progesterone receptor (Homo sapiens, UniProt P06401); assay: Inhibition of human progesterone receptor
T2 sequence (P06401 whole entry): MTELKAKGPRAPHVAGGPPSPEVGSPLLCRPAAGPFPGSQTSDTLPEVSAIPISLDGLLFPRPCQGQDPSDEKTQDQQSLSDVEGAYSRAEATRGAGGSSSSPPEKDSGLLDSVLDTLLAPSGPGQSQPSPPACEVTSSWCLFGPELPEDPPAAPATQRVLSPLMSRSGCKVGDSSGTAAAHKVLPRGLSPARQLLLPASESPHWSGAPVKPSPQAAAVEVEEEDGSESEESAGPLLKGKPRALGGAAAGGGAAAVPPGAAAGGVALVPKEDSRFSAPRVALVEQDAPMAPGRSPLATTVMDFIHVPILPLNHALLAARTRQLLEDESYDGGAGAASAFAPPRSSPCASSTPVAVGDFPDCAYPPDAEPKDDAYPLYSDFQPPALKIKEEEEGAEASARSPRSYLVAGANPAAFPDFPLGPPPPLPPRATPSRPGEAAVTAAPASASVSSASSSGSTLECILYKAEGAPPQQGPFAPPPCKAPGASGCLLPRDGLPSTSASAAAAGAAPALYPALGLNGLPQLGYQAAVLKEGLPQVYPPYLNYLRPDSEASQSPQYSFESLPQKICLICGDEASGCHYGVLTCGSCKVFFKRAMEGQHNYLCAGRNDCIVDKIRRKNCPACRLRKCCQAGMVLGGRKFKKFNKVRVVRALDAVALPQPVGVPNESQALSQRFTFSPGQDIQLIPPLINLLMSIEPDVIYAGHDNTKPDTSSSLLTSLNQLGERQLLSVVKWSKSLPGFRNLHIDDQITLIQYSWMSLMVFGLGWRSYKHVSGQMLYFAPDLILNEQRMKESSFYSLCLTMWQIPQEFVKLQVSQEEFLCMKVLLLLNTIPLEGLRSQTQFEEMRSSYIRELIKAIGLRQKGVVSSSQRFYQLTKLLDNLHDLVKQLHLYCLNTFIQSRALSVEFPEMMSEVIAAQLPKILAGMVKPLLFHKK

[2] = Clearance of the compound in rat after 5 mg/kg iv dose was determined; details: in vivo
[3] = Compound level in liver in SD rats after 7 hr of 5 mg/kg i.v. dose; format: ADME, organism-based; set-up: dose 5 mg/kg, route intravenous; details: Sprague-Dawley, rat, iv, read-out: Level
[4] = Compound level in plasma in SD rats after 1 hr of 5 mg/kg i.v. dose; format: ADME, organism-based; set-up: dose 5 mg/kg, route intravenous; details: Sprague-Dawley, rat, iv, read-out: Level
[5] = Half life period of the compound in human liver microsomes was determined; format: ADME, Microsome
[6] = Aspartate aminotransferase (AST) levels in ob/ob mice after 13 days of oral dose at 100 mpk b.i.d.; format: ADME; details: mouse, in vivo, 100 mg/kg, 312 h
[7] = Compound level in liver in ob/ob mice after 13 days of 100 mpk oral dose of compound; format: ADME; details: mouse, 100 mg/kg, read-out: Level
[8] = Compound level in plasma in SD rats after 7 hr of 5 mg/kg i.v. dose; format: ADME, organism-based; set-up: dose 5 mg/kg, route intravenous; details: Sprague-Dawley, rat, iv, read-out: Level
[9] = Compound level in liver in SD rats after 1 hr of 5 mg/kg i.v. dose; format: ADME, organism-based; set-up: dose 5 mg/kg, route intravenous; details: Sprague-Dawley, rat, iv, read-out: Level
[10] = Insulin levels in ob/ob mice after 14 days of oral dose at 100 mpk b.i.d.; format: ADME; details: mouse, in vivo, 100 mg/kg, 336 h
Mus musculus = organism: Mus musculus; assay: Initial weight of the ob/ob mice before oral treatment at 30 mpk b.i.d. for 14 days; format: functional
[11] = Cholesterol levels in ob/ob mice after 14 days of oral dose at 30 mpk b.i.d.; format: ADME; details: mouse, in vivo, 30 mg/kg, 336 h
[12] = Aspartate aminotransferase /alanine aminotransferase levels in ob/ob mice after 30 days of oral dose at 30 mpk b.i.d.; format: ADME; details: mouse, in vivo, 30 mg/kg, 720 h
[13] = Triglyceride levels in ob/ob mice after 30 days of oral dose at 100 mpk b.i.d.; format: ADME; details: mouse, in vivo, 100 mg/kg, 720 h
[14] = Glycogen levels in ob/ob mice after 14 days of oral dose at 30 mpk b.i.d.; format: ADME; details: mouse, in vivo, 30 mg/kg, 336 h
[15] = Insulin levels in ob/ob mice after 14 days of oral dose at 30 mpk b.i.d.; format: ADME; details: mouse, in vivo, 30 mg/kg, 336 h
[16] = Free fatty acid (FFA) levels in ob/ob mice after 30 days of oral dose at 30 mpk b.i.d.; format: ADME; details: mouse, in vivo, 30 mg/kg, 720 h
[17] = Cholesterol levels in ob/ob mice after 30 days of oral dose at 100 mpk b.i.d.; format: ADME; details: mouse, in vivo, 100 mg/kg, 720 h
[18] = Free fatty acid (FFA) levels in ob/ob mice after 14 days of oral dose at 100 mpk b.i.d.; format: ADME; details: mouse, in vivo, 100 mg/kg, 336 h
[19] = Cholesterol levels in ob/ob mice after 14 days of oral dose at 100 mpk b.i.d.; format: ADME; details: mouse, in vivo, 100 mg/kg, 336 h

Row | SMILES | half-life [1] | IC50 (Androgen receptor) | IC50 (Progesterone receptor) | concentration at 7 h [3] | concentration at 1 h [4] | half-life [5] | concentration at 312 h [7] | concentration at 7 h [8] | concentration at 1 h [9] | also measured
1 | Cc1c(NS(C)(=O)=O)cccc1N(Cc1ccccc1)Cc1ccc(Oc2ccc(OCC(=O)O)cc2)cc1 | 1870 min | 11.7 µM | 1700 nM | 3800 ng/g | 30 ng/mL | 534 min | 207000 ng/g | 10 ng/mL | 20000 ng/g | Clearance [2]: 233 mL/min/kg; Level [6]: 330 units/mL
2 | Cc1c(NS(C)(=O)=O)cccc1N(Cc1ccc(Oc2ccc(Cl)c(OCC(=O)O)c2)cc1)Cc1ccc(F)cc1F | – | 3.6 µM | 150 nM | – | – | – | – | – | – | –
3 | Cc1c(NS(C)(=O)=O)cccc1N(Cc1ccc(Oc2ccc(F)c(OCC(=O)O)c2)cc1)Cc1ccc(F)cc1F | 546 min | – | 180 nM | 40000 ng/g | 1600 ng/mL | 138 min | 157000 ng/g | 650 ng/mL | 74000 ng/g | Level [10]: 32.8 ng/mL; Weight (Mus musculus): 41.5 g; Level [11]: 225 mg/dL; Level [12]: 395 units/mL; Level [13]: 163 mg/dL; Level [14]: 54.6 mg/g; Level [15]: 25 ng/mL; Level [16]: 0.99 mequiv/L; Level [17]: 239 mg/dL; Level [18]: 1.01 mequiv/L; Level [19]: 134 mg/dL
4 | Cc1c(NS(C)(=O)=O)cccc1N(Cc1ccccc1)Cc1ccc(Oc2cccc(OCCCC(=O)NCCCC(=O)O)c2)cc1 | – | 1.6 µM | 550 nM | – | – | – | – | – | – | –
5 | CC#C[C@]1(O)CC[C@H]2[C@@H]3CCC4=CC(=O)CC[C@]4(Cc4ccc(C)cc4)C3=CC[C@@]21C | – | 6.5 µM | 2400 nM | – | – | – | – | – | – | –
